Measurements reported in patent US8163776B2, “Method of immunomodulation using thione-forming disulfides” (Grassetti family Trust, priority 2001, dated 2012).
Values joined by “and” are separate entries in the source; they are usually repeats but may differ in a detail not shown here. Equal values may be shown once.

Columns and labels:
[1] = test system: feline immunodeficiency virus (FIV); test: CPDS in an FIV-positive cat with FIDS symptoms (Example 10); type: in vivo
Description: A very ill, young, spayed male cat ws presented with symptoms of feline immunodeficiency syndrome (FIDS). He had fever, diarrhea, and his glands were swollen. His coat was dull and the cat was listless.
His blood tested positive for feline immunodeficiency syndrome (FIV), as determined by ELISA testing with feline immunodeficiency virus antibody from Indexx Laboratories (Westbrook, Me.). The cat's weight upon presentation was 9.5 lbs.
Treatment of the cat with CPDS commenced the same day with a daily dose of 280 mg CPDS in the cat's diet. The regimen was continued for 30 days. […] The hair on the cat's muzzle and back was still thin. CPDS treatment was continued at 140 mg/day for another 60 days. […] His coat was rich and shiny, his eyes became bright, and his behavior was normal for a spayed male cat. The cat's weight after 60 days of treatment was 10.2 lbs, a gain of about 300 grams.

[2] = test system: spleen T cells, B cells and NK cells; test: Immunophenotyping of splenocytes by flow cytometry; type: in vivo, BALB/c mice
Experimental: In general, the immunophenotyping technique consisted briefly of isolating cells from the peripheral blood or an organ (spleen or thymus), labeling them with a panel of antibodies specific for certain antigens of the membrane, and allowing to quantify the different populations. Analysis was performed by flow cytometry since antibodies were conjugated with a fluorochrome (Longbardi, Givan, A., 1994, Flow cytometry. First principles, Wiley-Liss Inc. New York.).
To immunophenotype immune cells, splenocytes were diluted to a concentration of […]. A total of 1×10^6 cells were distributed in a V-shape 96 well plate. A total of 7 wells were necessary for each sample. Plates were centrifuged 5 minutes at 1200 rpm. Supernatant was discarded and pellet were vortexed. Monoclonal antibodies were distributed in each wells according to the following set up:
The antibodies used are commercially available from Becton Dickinson (San Jose, Calif.). The cells were incubated with the antibodies for 30 minutes on ice, washed three times with D-PBS+1% BSA, spun at 1200 rpm for 5 minutes using a multichannel pipette, suspended in 1 ml of paraformaldehyde 2% (v/v), and transferred into flow cytometry tubes. Samples were analyzed using EPICS XL from Beckman Coulter flow cytometer. Results were expressed as percentage of the population expressing the specific surface antigen. Live population of cells were gated upon using forward scatter (FS) vs. side scatter (SS) to distinguish live cells from dead cells. A total of 10,000 gated cells were counted for statistical relevance. The FL1 band pass filter (set at 525 nm) was used to detect fluoroscein isothiocyanate (FITC) fluorescence. The FL2 band pass filter (set at 575 nm) was used to detect phycoerythrin (PE) fluorescence. The cursors are set accordingly to delineate the positive region. This region should be relative to 1% of the unstained control (cell control). Results are expressed as % of positive population expressing the specific surface antigens. Student's T test was performed between the control group and the treated group. The p value was calculated for statistical significance.

splenocytes = test: Total splenocyte (lymphocyte) count, trypan blue exclusion; type: in vivo, BALB/c mice; conditions: for Total Lymphocyte Counts: spleen
Experimental: Splenocytes were isolated by obtaining spleen from the sacrificed mice on the same experimental day, homogenizing the spleen using a 50-M mesh screen, and suspending the homogenate in 25 ml of RPMI 1640. The splenocyte suspension was washed and then spun at 1200 rpm for 5 minutes. The red blood cells were lysed by an osmotic choc with distilled water. The splenocyte suspension was washed and spun at 1200 rpm for 5 minutes. The splenocytes were suspended in complete RPMI media (90% RPMI 1640, 10% FBS, antibiotics 1×, HEPES 1 mM) and the suspension was filtered through cotton wool. Cells were counted using trypan blue exclusion method. Total splenocyte count was recorded (Table 7). Cells were kept on ice and diluted to the appropriate concentration for the corresponding experimental procedures.
To count splenocytes, two chambers of the hemacytometer were counted and the mean was calculated. The total splenocyte count was calculated by the following formula: Total splenocyte count=mean count×10 (dilution factor)×10^4×suspension volume. The mean was calculated for each control and treated group. Student's T test was performed between the control group and the treated group. The p value was calculated for statistical significance. Following spleen homogenization, the total number of splenocytes isolated was counted using a standard trypan blue method which discriminates between viable and non viable cells.

[3] = FIV-positive cat, end of thirty days at 280 mg CPDS daily
[4] = 30 days on CPDS diet vs group 1
[5] = Group 2, 30 days on CPDS diet, Mean ± S.D.
[6] = Group 2, 30 days on CPDS diet, individual mice
[7] = Group 6, 6 days on CPDS diet, Mean ± S.D.
[8] = Group 6, 6 days on CPDS diet, individual mice

In the case of O=C(O)c1ccc(SSc2ccc(C(=O)O)cn2)nc1 [CPDS, 6,6′-dithiodinicotinic acid], the “Cat's health” value ([1]; FIV-positive cat, 280 mg CPDS daily in diet, after a few days) is reported as “showed improvement”, the “Symptoms (fever, diarrhea, swollen glands)” value [1, 3] is reported as “fever had subsided, the diarrhea was gone, its glands were no longer swollen” and the “Test for the FIDS antibody” value [1, 3] is reported as “still tested positive”. The “Overall state of the cat” value ([1]; after 30 days at 280 mg/day and another 60 days at 140 mg/day) was “appeared to be healed”, the “Weight gain of the cat” value ([1]; after 60 days of treatment vs presentation) was “about 300 grams” and the “Cat's weight after treatment” value ([1]; after 60 days of treatment, 9.5 lbs upon presentation) was 10.2 lbs. For the same compound, the “B cells, variation (%)” value ([2]; 6 days on CPDS diet vs Group 5) was −1.0%, the “CD4+, variation (%)” value ([2]; 6 days on CPDS diet vs Group 5) was −8.5% and the “CD8+, variation (%)” value ([2]; 6 days on CPDS diet vs Group 5) was −6.8%. For the same compound, the “NK cells, variation (%)” value ([2]; 6 days on CPDS diet vs Group 5) was 43.5%, the “Ratio CD4/CD8, variation (%)” value ([2]; 6 days on CPDS diet vs Group 5) was −1.8% and the “Total T cells, variation (%)” value ([2]; 6 days on CPDS diet vs Group 5) was −8.0%. For the same compound, the “Immunophenotyping: B cells, effect of CPDS diet” value ([2]; 6 days, n=3) was “no significant effect”, the “Immunophenotyping: Ratio CD4/CD8, effect of CPDS diet” value ([2]; 6 days, n=3) was “No effect” and the “Immunophenotyping: T CD4+, effect of CPDS diet” value ([2]; 6 days, n=3) was “No effect”. For the same compound, the “Immunophenotyping: T CD8+, effect of CPDS diet” value ([2]; 6 days, n=3) was “No effect”, the “Immunophenotyping: Total T cells, effect of CPDS diet” value ([2]; 6 days, n=3) was “no significant effect” and the “Immunophenotyping: NK cells, effect of CPDS diet” value ([2]; 6 days, n=3, arrow image = increase) was “tendency toward an increase”. The “B cells, variation (%)” value [2, 4] was −19.9%, the “CD4+, variation (%)” value [2, 4] was −3.9% and the “CD8+, variation (%)” value [2, 4] was −11.0%. The “NK cells, variation (%)” value [2, 4] was 69.4%, the “Ratio CD4/CD8, variation (%)” value [2, 4] was 7.7% and the “Total T cells, variation (%)” value [2, 4] was −1.2%. For the same compound, the “Immunophenotyping: T CD4+, effect of CPDS diet” value ([2]; 30 days, n=8) was “No effect”, the “Immunophenotyping: Total T cells, effect of CPDS diet” value ([2]; 30 days, n=8) was “No effect” and the “Immunophenotyping: T CD8+, effect of CPDS diet” value ([2]; 30 days, n=8, arrow image = decrease) was “tendency to decrease”. The “Immunophenotyping: Ratio CD4/CD8, effect of CPDS diet” value ([2]; 30 days, n=8, arrow image = increase) was “tendency”, the “B cells (%)” value [2, 5] was 23.4 ± 2.0% and the “CD4+ (%)” value [2, 5] was 23.6 ± 2.3%. For the same compound, the “CD8+ (%)” value [2, 5] was 9.6 ± 1.2%, the “NK cells (%)” value [2, 5] was 6.9 ± 4.9% and the “Ratio CD4/CD8” value [2, 5] was 2.49 ± 0.26. For the same compound, the “Total T cells (%)” value [2, 5] was 38.4 ± 2.9%, the “B cells (%)” value [2, 6] was 24.0% and 25.9% and 25.0% and 21.5% and 23.8% and 22.3% and 24.8% and 20.1% and the “CD4+ (%)” value [2, 6] was 21.7% (2×) and 24.0% and 28.3% and 25.7% and 23.2% and 22.2% and 22.1%. For the same compound, the “CD8+ (%)” value [2, 6] was 8.5% and 9.58% and 10.2% and 11.5% and 9.66% and 7.92% and 8.54% and 10.5%, the “NK cells (%)” value [2, 6] was 16.8% and 4.8% (2×) and 11.9% and 3.72% and 2.6% and 5.56% and 4.76% and the “Ratio CD4/CD8” value [2, 6] was 2.55 and 2.27 and 2.35 and 2.46 and 2.66 and 2.93 and 2.60 and 2.1. For the same compound, the “Total T cells (%)” value [2, 6] was 35.8% and 36.8% and 39.6% and 44.6% and 39.8% and 37.5% and 36.0% and 37.4%, the “B cells (%)” value [2, 7] was 50.3 ± 0.5% and the “CD4+ (%)” value [2, 7] was 25.8 ± 2.3%. The “CD8+ (%)” value [2, 7] was 13.6 ± 0.9%, the “NK cells (%)” value [2, 7] was 11.9 ± 2.7% and the “Ratio CD4/CD8” value [2, 7] was 1.90 ± 0.06. The “Total T cells (%)” value [2, 7] was 41.4 ± 2.5%, the “B cells (%)” value [2, 8] was 49.8% and 50.7% and 50.3% and the “CD4+ (%)” value [2, 8] was 26.4% and 23.3% and 27.8%. For the same compound, the “CD8+ (%)” value [2, 8] was 14.0% and 12.6% and 14.2%, the “NK cells (%)” value [2, 8] was 9.7% and 14.1% and 9.1% and the “Ratio CD4/CD8” value [2, 8] was 1.89 and 1.85 and 1.96. The “Total T cells (%)” value [2, 8] was 42.8% and 38.6% and 42.9%, the “Total Lymphocyte Counts, variation” value (splenocytes; Group 2, 30 days on CPDS diet vs group 1 (normal diet)) was −15.58% and the “Total Lymphocyte Counts” value (splenocytes; Group 2, 30 days on CPDS diet, group Mean) was 5.01 × 10^7. The “Total Lymphocyte Counts” value (splenocytes; [6]) was 3.94 × 10^7 and 5.18 × 10^7 and 6.03 × 10^7 and 4.47 × 10^7 and 5.54 × 10^7 and 5.91 × 10^7 and 4.77 × 10^7 and 4.25 × 10^7, the “Total Lymphocyte Counts, variation” value (splenocytes; Group 6, 6 days on CPDS diet vs group 5 (normal diet)) was −30.97% and the “Total Lymphocyte Counts” value (splenocytes; Group 6, 6 days on CPDS diet, group Mean) was 4.16 × 10^7. The “Total Lymphocyte Counts” value (splenocytes; [8]) was 3.08 × 10^7 and 4.58 × 10^7 and the “Necrosis or loss of splenocyte viability” value (splenocytes; after 6 and 30 days CPDS diet) was “No signs of necrosis or loss of splenocyte viability were observed”.
